Laboratory results as given in PubChem BioAssay (NCI).
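Cultured in 96-well plates, cells were exposed to test compound for 48 hours across five concentrations. TGI marks complete inhibition of growth.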

What was measured:
Experiment in all cases: inhibition of tumour cell growth, NCI panel, 48 h
RPMI-8226 leukemia = test system: RPMI-8226 leukemia
SW-620 colon = test system: SW-620 colon
HT29 colon = test system: HT29 colon
OVCAR-4 ovarian = test system: OVCAR-4 ovarian
EKVX NSCLC = test system: EKVX NSCLC
LXFL 529 NSCLC = test system: LXFL 529 NSCLC
SK-MEL-2 melanoma = test system: SK-MEL-2 melanoma
SNB-78 CNS = test system: SNB-78 CNS
SN12C renal = test system: SN12C renal
U251 CNS = test system: U251 CNS
NCI-H23 lung = test system: NCI-H23 lung
HL-60(TB) leukemia = test system: HL-60(TB) leukemia
CAKI-1 renal = test system: CAKI-1 renal
DMS 114 small cell lung = test system: DMS 114 small cell lung
SNB-75 CNS = test system: SNB-75 CNS
LOX IMVI melanoma = test system: LOX IMVI melanoma
IGROV1 ovarian = test system: IGROV1 ovarian
SK-MEL-28 melanoma = test system: SK-MEL-28 melanoma
OVCAR-5 ovarian = test system: OVCAR-5 ovarian
OVCAR-8 ovarian = test system: OVCAR-8 ovarian
COLO 205 colon = test system: COLO 205 colon
NCI-H460 lung = test system: NCI-H460 lung
SR leukemia = test system: SR leukemia
MOLT-4 leukemia = test system: MOLT-4 leukemia
SF-539 CNS = test system: SF-539 CNS
DLD-1 colon = test system: DLD-1 colon
SF-295 CNS = test system: SF-295 CNS
A498 renal = test system: A498 renal
HCC-2998 colon = test system: HCC-2998 colon
KM20L2 colon = test system: KM20L2 colon
SF-268 CNS = test system: SF-268 CNS
UO-31 renal = test system: UO-31 renal
M14 melanoma = test system: M14 melanoma
UACC-257 melanoma = test system: UACC-257 melanoma
TK-10 renal = test system: TK-10 renal
CCRF-CEM leukemia = test system: CCRF-CEM leukemia
RXF 393 renal = test system: RXF 393 renal
NCI-H226 lung = test system: NCI-H226 lung
ACHN renal = test system: ACHN renal
SK-MEL-5 melanoma = test system: SK-MEL-5 melanoma
HOP-92 NSCLC = test system: HOP-92 NSCLC
A549 NSCLC = test system: A549 NSCLC
KM12 colon = test system: KM12 colon
HCT-116 colon = test system: HCT-116 colon
MALME-3M melanoma = test system: MALME-3M melanoma
RXF-631 renal = test system: RXF-631 renal
SNB-19 CNS = test system: SNB-19 CNS
K-562 leukemia = test system: K-562 leukemia
HOP-18 NSCLC = test system: HOP-18 NSCLC

COc1nc2[nH]ccc2c(=O)[nH]1
TGI (RPMI-8226 leukemia): > 100 µM | TGI (SW-620 colon): > 100 µM | TGI (HT29 colon): > 100 µM | TGI (OVCAR-4 ovarian): > 100 µM | TGI (EKVX NSCLC): > 100 µM | TGI (LXFL 529 NSCLC): > 100 µM | TGI (SK-MEL-2 melanoma): > 100 µM | TGI (SNB-78 CNS): > 100 µM | TGI (SN12C renal): > 100 µM | TGI (U251 CNS): > 100 µM | TGI (NCI-H23 lung): > 100 µM | TGI (HL-60(TB) leukemia): > 100 µM | TGI (CAKI-1 renal): > 100 µM | TGI (DMS 114 small cell lung): > 100 µM | TGI (SNB-75 CNS): > 100 µM | TGI (LOX IMVI melanoma): > 100 µM | TGI (IGROV1 ovarian): > 100 µM | TGI (SK-MEL-28 melanoma): > 100 µM | TGI (OVCAR-5 ovarian): > 100 µM | TGI (OVCAR-8 ovarian): > 100 µM | TGI (COLO 205 colon): > 100 µM | TGI (NCI-H460 lung): > 100 µM | TGI (SR leukemia): > 100 µM | TGI (MOLT-4 leukemia): > 100 µM | TGI (SF-539 CNS): > 100 µM | TGI (DLD-1 colon): > 100 µM | TGI (SF-295 CNS): > 100 µM | TGI (A498 renal): > 100 µM | TGI (HCC-2998 colon): > 100 µM | TGI (KM20L2 colon): > 100 µM | TGI (SF-268 CNS): > 100 µM | TGI (UO-31 renal): > 100 µM | TGI (M14 melanoma): > 100 µM | TGI (UACC-257 melanoma): > 100 µM | TGI (TK-10 renal): > 100 µM | TGI (CCRF-CEM leukemia): > 100 µM | TGI (RXF 393 renal): > 100 µM | TGI (NCI-H226 lung): 9.92 µM | TGI (ACHN renal): > 100 µM | TGI (SK-MEL-5 melanoma): > 100 µM | TGI (HOP-92 NSCLC): > 100 µM | TGI (A549 NSCLC): > 100 µM | TGI (KM12 colon): > 100 µM | TGI (HCT-116 colon): > 100 µM | TGI (MALME-3M melanoma): > 100 µM | TGI (RXF-631 renal): > 100 µM | TGI (SNB-19 CNS): > 100 µM | TGI (K-562 leukemia): > 100 µM | TGI (HOP-18 NSCLC): > 100 µM
